Test results reported in paper PMC10712649 (Pharmacological research, 2023).
≈ marks a conversion by molar mass, not a printed value.

Experiments:
primary myometrial cells = assay: Ca2+-mobilization assay, concentration-response; assay type: cell-based; conditions: Homo sapiens, read-out: Emax, Myometrial, inhibition of Ca2+-mobilization
[1] = system: primary aortic vascular smooth muscle cells (VSMCs); assay: Ca2+-mobilization assay, concentration-response; assay type: cell-based, human
[2] = In vitro therapeutic index; conditions: smallest cell viability IC50 among the three cell types / Ca2+ assay IC50
mouse myometrial tissue = assay: Ex vivo isometric myometrial contractility organ bath assay; conditions: for Emax: read-out: Emax, inhibition of myometrial contractions; for IC50: read-out: IC50, inhibition of myometrial contractions
Solubility = assay type: physicochemical
MDCK permeability = assay type: in vitro ADME; conditions: dog
[3] = Human plasma protein binding; assay type: in vitro ADME
[4] = Intrinsic clearance in liver microsomes; assay type: in vitro ADME; conditions: mouse
[5] = Intrinsic clearance in liver microsomes; assay type: in vitro ADME; conditions: rat
[6] = Intrinsic clearance in liver microsomes; assay type: in vitro ADME; conditions: human
myometrial cells = assay: Combination high-throughput Ca2+-mobilization assay; conditions: for synergy in combination Ca2+-mobilization assay: 8 x 8 dose matrices, Combenefit
human myometrial tissue = assay: Ex vivo isometric myometrial contractility organ bath assay; conditions: read-out: Emax, inhibition of myometrial contractions
[7] = system: mifepristone-induced mouse model of PTB; assay: In vivo therapeutic efficacy in mifepristone-induced mouse model of PTB
CD-1 pregnant mice = assay: Minimal effective dose of mifepristone to induce PTB; assay type: in vivo, mouse; conditions: s.c. on day 15 of pregnancy
[8] = system: mifepristone-induced mouse model of PTB; conditions: mifepristone 150 μg; prior study; cited from earlier work

| Compound | Emax (primary myometrial cells) | TI (therapeutic index) [2] | Emax (mouse myometrial tissue) | IC50 (mouse myometrial tissue) | solubility (Solubility) | Papp (MDCK permeability) | fraction unbound [3] | microsomal CLint [4] | microsomal CLint [5] | microsomal CLint [6] | synergy in combination Ca2+-mobilization assay (myometrial cells) | fold enhancement in potency in combination (myometrial cells; in combination with nifedipine) | fold improvement of efficacy in combination vs single-agent (myometrial cells; in combination with nifedipine) | also measured |
| --- | --- | --- | --- | --- | --- | --- | --- | --- | --- | --- | --- | --- | --- | --- |
| COc1c(-c2coc3cc4c(cc3c2=O)CC(OC(C)=O)C(C)(C)O4)ccc2c1C=CC(C)(C)O2 (stereo not drawn) [MA, mundulone acetate] | 44.5% | 8.8 | 27% | > 100 µM | 11 to 20 µM | 22.1 ×10⁻⁶ cm/s | 0.001 | 886 µL/min/mg | 586 µL/min/mg | 27.2 µL/min/mg | exhibited synergistic efficacy with only nifedipine | 2–3 fold | 6 fold | Emax, % difference ([1]; myometrial cells vs aorta VSMCs): 70% |
| COc1c(-c2coc3cc4c(cc3c2=O)CC(O)C(C)(C)O4)ccc2c1C=CC(C)(C)O2 (stereo not drawn) [Mundulone, mundulone] | 80.5% | 0.8 | 70% | 10 µM | 21 to 40 µM (≈ 9.12 to 17.4 µg/mL) | 49.4 ×10⁻⁶ cm/s | 0.007 | 47.1 µL/min/mg | 30.7 µL/min/mg | < 20 µL/min/mg | displayed synergism with atosiban and nifedipine | 2–3 fold | 6 fold | IC50, Fold difference ([1]; aorta VSMCs vs myometrial cells): 2; Emax (human myometrial tissue): 57%; timing of delivery ([7]; 30 μg mifepristone, 6.5, 13, or 26 mg/kg twice daily s.c., dose-dependently, p = 0.0457): delayed the timing of delivery; mortality ([7]; 26 mg/kg twice daily until the evening of day 17, 30 μg mifepristone): 100%; signs of impaired health or mortality in treated mice ([7]; single-agent, twice daily): did not show signs of impaired health or mortality until treated with 26 mg/kg twice daily for two days; fold improvement of efficacy in combination vs single-agent (myometrial cells; in combination with atosiban): 2 fold; fold improvement of potency in combination vs single-agent (myometrial cells; with either atosiban (FR 3.7:1) or nifedipine (FR 1:4.4)): 2–3 fold |
| CC#C[C@]1(O)CC[C@H]2[C@@H]3CCC4=CC(=O)CCC4=C3[C@@H](c3ccc(N(C)C)cc3)C[C@@]21C [mifepristone] |  |  |  |  |  |  |  |  |  |  |  |  |  | lowest dose required for 100% PTB rates (CD-1 pregnant mice): 30 µg |
| COC(=O)C1=C(C)NC(C)=C(C(=O)OC)C1c1ccccc1[N+](=O)[O-] [nifedipine] |  |  |  |  |  |  |  |  |  |  |  |  |  | delivery occurring post-mifepristone administration [8]: ≤ 25 h |
